From US12465609B2, “Methods of treating patients suffering from a disease condition or disorder that is associated with an increased glutamate level” (veriNOS operations GmbH, priority 2022, dated 2025)

Test system: C57 BL/6 mice, controlled cortical impact (CCI) model
Test: Controlled cortical impact (CCI) model in mice, intracranial pressure (ICP)
Type: in vivo
Conditions: CCI mice, analogous treatment
Text: The primary objective of this experiment was the characterization of the intracranial pressure (ICP) reduction by VAS3384 in the controlled cortical impact (CCI) model in mice. The secondary objective was characterization of the neuroprotective effect (reduction of the lesion volume) of VAS3384 in the controlled cortical impact model in mice.
• Test compound A • Denomination: VAS 3384 • Active agent: 4-Amino-4-desoxy-7,8-dihydrobiopterin-dihydrochloride, obtained from Schircks Laboratories, Bauma, Switzerland • Detailed composition: VAS 3384 dissolved in sodium phosphate buffer (PBS) pH 7.4 • Formulation method: 15 mg of the test compound (VAS 3384) are dissolved in 500 μl PBS, pH 7.4. The solution is neutralized with 72 μl 1 N NaOH and filled up with 428 μl water (check pH). • Final concentration of active agent: 15 mg/ml • Appearance: yellow, clear solution • Storage (solid test compound): −20° C. • Dose applied: 560 mg/kg or 37.3 ml/kg • Way of administration: intravenous injection/infusion • Negative control • Denomination: sodium phosphate buffer (PBS) • Active agent: none • Detailed composition: Na2HPO4, NaH2PO4, 100 mM pH 7.4 • Formulation method: ready for use • Final concentration of active agent: not applicable • Appearance: colourless, clear solution • Expiration date: 3 months after preparation • Volume applied: 37.3 ml/kg • Way of administration: intravenous injection/infusion Experimental Procedure
The animals (C57 BL/6 mice), under Dormicum/Methidomidin/Fentanyl-narcosis were fixed in a stereo tactical frame and the scalp was opened with a cut along the median. The skull bone
was laid open and disinfected with H2O2. A hole of approx. 1.2 mm diameter was then drilled into the skull (Bregma 0.4-0.4 mm). The ICP-probe was introduced through this hole. The V. jugularis was be laid open and a catheter introduced. This catheter was introduced in the neck subcutaneously and fixed on the cap of the cage with a protective spiral of metal. This setup permitted an infusion in awake animals. The skull was opened above of the right cortex and mechanically traumatized (CCI model). The skullcap was then closed with the removed bone.
Mice 1-9: 10 minutes after the trauma the animals got an intravenous bolus injection of 20 mg/kg VAS 3384 (=1.33 ml/kg) followed by an infusion of 1.5 mg/kg/min (=100 μl/kg/min) VAS 3384 over six hours to maintain the dose. After six hours, after termination of the infusion, and after 24 hours the ICP of the animals was measured. After 24 hours the animals were sacrificed, the brains dissected and the lesion volume determined by Nissl's method.
Mice 10-18: 10 minutes after the trauma the animals received an intravenous bolus injection of 1.33 ml/kg PBS followed by an infusion of 100 μl/kg/min PBS over six hours. After six hours, after the termination of the infusion, and after 24 hours the ICP of the animals was measured.
At the end of the observation period animals were sacrificed by cervical dislocation in deep halothane anaesthesia. The brains were carefully removed, frozen in powdered dry ice, and stored at −20° C. until further use. Ten μm coronal sections were prepared every 500 μm on a cryostat (CryoStar HM 560, Microm, Walldorf, Germany) and stained with cresyl violet. Sections were photographed with a digital camera system. The contusion area, the area of the non-traumatized tissue of the ipsilateral hemisphere, and the area of the contralateral hemisphere were determined on the digitized images with a standard image analysis software (Optimate 6.51, Media Cybernetics, Silver Spring, MD, USA) by an investigator blinded to the treatment of the animals. In order to correct for the swelling of contused tissue, the contusion area was calculated by subtracting the area of the non-traumatized tissue of the ipsilateral hemisphere from the area of the contralateral hemisphere. […]

C[C@H](O)[C@H](O)C1CNc2nc(N)nc(N)c2N1 (mixture of isomers) [Ronopterin, 4-Amino-(6R,S)-5,6,7,8-tetrahydro-L-biopterin]
time ICP remained lowered after the treatment: at least 18 h
